Laboratory results published in ChEMBL document CHEMBL1146115, “Synthesis and evaluation of novel heterocyclic inhibitors of GSK-3” (Bioorg Med Chem Lett, 2006).

Molecular target: Glycogen synthase kinase-3 (Homo sapiens, UniProt P49840+P49841)
Test: Inhibition of GSK3
Format: protein assay

Row | SMILES | Log IC50
1 | COc1cccc(-n2ccc3c(N/N=C/c4ccncc4)ncnc32)c1 | -7.5
2 | COc1cccc(-c2[nH]nc3c(N/N=C/c4ccncc4)ncnc23)c1 | -8.3
3 | COc1cccc(-c2cn(C)c3c(N/N=C/c4ccncc4)ncnc23)c1 | -6.3
4 | COc1cccc(-n2ncc3c(N/N=C/c4ccncc4)ncnc32)c1 [GW784752X] | -8.2
5 | COc1cccc(-n2cnc3c(N/N=C/c4ccncc4)ncnc32)c1 [GW813360X] | -6.2
6 | COc1cccc(-c2c[nH]c3c(N/N=C/c4ccncc4)ncnc23)c1 [GW814408X] | -8.3
